Data taken from patent US20060069132A1, “Azolecarboxamide herbicides” (priority 2004, published 2006).

Legend:
barnyardgrass [1] = test: Test B pre-/postemergence herbicide test; assay type: in vivo, Echinochloa crus-galli
In short: (§1)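 Herbicidal effect was judged by eye on a 0–100 scale after plants stood 13 to 15 days in the greenhouse following pre- or postemergence treatment with surfactant-containing formulations.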

Surinam grass = test: Test B pre-/postemergence herbicide test; assay type: in vivo, Urochloa decumbens
In short: (§2)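 Greenhouse pot assay with simultaneous preemergence (treated seed) and postemergence (2–18 cm seedlings) applications of surfactant-containing, non-phytotoxic solvent formulations. Response scored visually 13–15 days later on a 0–100 scale, 100 meaning complete control.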

cocklebur = test: Test B pre-/postemergence herbicide test; assay type: in vivo, Xanthium strumarium
In short: as §1

corn = test: Test B pre-/postemergence herbicide test; assay type: in vivo, Zea mays
In short: as §2

large crabgrass = test: Test B pre-/postemergence herbicide test; assay type: in vivo, Digitaria sanguinalis
In short: as §2

giant foxtail = test: Test B pre-/postemergence herbicide test; assay type: in vivo, Setaria faberi
In short: as §2

lambsquarters = test: Test B pre-/postemergence herbicide test; assay type: in vivo, Chenopodium album
In short: as §2

morningglory = test: Test B pre-/postemergence herbicide test; assay type: in vivo, Ipomoea coccinea
In short: as §1

pigweed = test: Test B pre-/postemergence herbicide test; assay type: in vivo, Amaranthus retroflexus
In short: as §2

velvetleaf = test: Test B pre-/postemergence herbicide test; assay type: in vivo, Abutilon theophrasti
In short: as §2

blackgrass = test: Test B postemergence herbicide test; assay type: in vivo, Alopecurus myosuroides
In short: (§3)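 Treated at 2-leaf (paddy) or 1–4-leaf, 2–18 cm (postemergence); greenhouse 13–15 d; visual score vs control, 0 none to 100 complete control; dash = not tested.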

wheat = test: Test B postemergence herbicide test; assay type: in vivo, Triticum aestivum; design: key to Wheat plant response rating: 0 = no effect, 100 = complete control
In short: (§4)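 Visual ratings, 0 (no effect) to 100 (complete control), made versus controls after 13–15 d greenhouse. Paddy plants treated at 2-leaf stage; postemergence plants at 1- to 4-leaf stage, 2–18 cm tall.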

wild oat = test: Test B postemergence herbicide test; assay type: in vivo, Avena fatua
In short: as §4

rice = test: Test B flooded paddy test; assay type: in vivo, Oryza sativa; details: 1000 g ai/ha, scale 0 to 100 (0 no effect, 100 complete control)
In short: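 Greenhouse test; postemergence application to plants at 1–4 leaves (2–18 cm); paddy species at 2 leaves; evaluated visually vs controls at 13–15 days; scale 0–100 (100 = complete control).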

[2] = tested on: small flower umbrella sedge; test: Test B flooded paddy test; assay type: in vivo, Cyperus difformis; details: 1000 g ai/ha, scale 0 to 100 (0 no effect, 100 complete control)
In short: as §3

ducksalad = test: Test B flooded paddy test; assay type: in vivo, Heteranthera limosa; details: 1000 g ai/ha, scale 0 to 100 (0 no effect, 100 complete control)
In short: as §3

barnyardgrass [3] = test: Test B flooded paddy test; assay type: in vivo, Echinochloa crus-galli; details: 1000 g ai/ha, scale 0 to 100 (0 no effect, 100 complete control)
In short: as §3

[4] = Postemergence, 250 g ai/ha, scale 0 (no effect) to 100 (complete control)
[5] = postemergence, 62 g ai/ha, scale 0 to 100
[6] = 125 g ai/ha, 0 is no effect, 100 is complete control, preemergence
[7] = 125 g ai/ha, visual rating, scale 0 (no effect) to 100 (complete control), postemergence
[8] = 500 g ai/ha, visual rating, 0 = no effect, 100 = complete control, preemergence
[9] = postemergence, 500 g ai/ha, scale 0 to 100, 0 is no effect, 100 is complete control

## CCN(CC)C(=O)c1cccc(NC(=O)c2cn(C(C)(C)C)nc2C(F)(F)F)c1 [Compound 191]
Barnyardgrass [1]; [4]
  Barnyardgrass plant response rating: 10
Barnyardgrass [1]; [5]
  Barnyardgrass plant response rating: 0
Surinam grass; [4]
  Surinam Grass plant response rating: 10
Surinam grass; [5]
  Surinam Grass plant response rating: 10
cocklebur; [4]
  Cocklebur plant response rating: 10
cocklebur; [5]
  Cocklebur plant response rating: 0
corn; [4]
  Corn plant response rating: 10
corn; [5]
  Corn plant response rating: 10
Large crabgrass; [4]
  Crabgrass, Large plant response rating: 20
Large crabgrass; [5]
  Crabgrass, Large plant response rating: 20
Giant foxtail; [4]
  Foxtail, Giant plant response rating: 20
Giant foxtail; [5]
  Foxtail, Giant plant response rating: 10
lambsquarters; [4]
  Lambsquarters plant response rating: 80
lambsquarters; [5]
  Lambsquarters plant response rating: 60
morningglory; [4]
  Morningglory plant response rating: 90
morningglory; [5]
  Morningglory plant response rating: 40
pigweed; [4]
  Pigweed plant response rating: 70
pigweed; [5]
  Pigweed plant response rating: 30
velvetleaf; [4]
  Velvetleaf plant response rating: 20
velvetleaf; [5]
  Velvetleaf plant response rating: 10
blackgrass; [4]
  Blackgrass plant response rating: 10
blackgrass; [5]
  Blackgrass plant response rating: 0
wheat; 250 g ai/ha, scale 0 to 100, 0 no effect, 100 complete control, preemergence
  Wheat plant response rating: 0
wheat; [4]
  Wheat plant response rating: 0
wheat; [5]
  Wheat plant response rating: 0
Wild oat; [4]
  Oat, Wild plant response rating: 20
Wild oat; [5]
  Oat, Wild plant response rating: 10
rice; visual rating, 13 to 15 days
  Rice plant response rating: 0
[2]; visual rating, 13 to 15 days
  Sedge, Umbrella plant response rating: 90
ducksalad; visual rating, 13 to 15 days
  Ducksalad plant response rating: 20
Barnyardgrass [3]; visual rating, 13 to 15 days
  Barnyardgrass plant response rating: 20

## CCNC(=O)c1ccc(F)c(NC(=O)c2cn(C(C)(C)C)nc2C)c1 [Compound 345]
Barnyardgrass [1]; [6]
  Plant response rating (0 to 100 scale), Barnyardgrass: 20
Barnyardgrass [1]; [7]
  Barnyardgrass plant response rating: 0
Barnyardgrass [1]; [8]
  Plant response rating, Barnyardgrass: 30
Barnyardgrass [1]; [9]
  Barnyardgrass plant response rating: 0
Surinam grass; [6]
  Plant response rating (0 to 100 scale), Surinam Grass: 20
Surinam grass; [7]
  Surinam Grass plant response rating: 0
Surinam grass; [8]
  Plant response rating, Surinam Grass: 70
Surinam grass; [9]
  Surinam Grass plant response rating: 0
cocklebur; [6]
  Plant response rating (0 to 100 scale), Cocklebur: 0
cocklebur; [7]
  Cocklebur plant response rating: 0
cocklebur; [8]
  Plant response rating, Cocklebur: 10
cocklebur; [9]
  Cocklebur plant response rating: 0
corn; [6]
  Plant response rating (0 to 100 scale), Corn: 0
corn; [7]
  Corn plant response rating: 0
corn; [8]
  Plant response rating, Corn: 10
corn; [9]
  Corn plant response rating: 0
Large crabgrass; [6]
  Plant response rating (0 to 100 scale), Crabgrass, Large: 30
Large crabgrass; [7]
  Crabgrass, Large plant response rating: 0
Large crabgrass; [8]
  Plant response rating, Crabgrass, Large: 90
Large crabgrass; [9]
  Crabgrass, Large plant response rating: 0
Giant foxtail; [6]
  Plant response rating (0 to 100 scale), Foxtail, Giant: 10
Giant foxtail; [7]
  Foxtail, Giant plant response rating: 0
Giant foxtail; [8]
  Plant response rating, Foxtail, Giant: 30
Giant foxtail; [9]
  Foxtail, Giant plant response rating: 0
lambsquarters; [6]
  Plant response rating (0 to 100 scale), Lambsquarters: 70
lambsquarters; [7]
  Lambsquarters plant response rating: 20
lambsquarters; [8]
  Plant response rating, Lambsquarters: 100
lambsquarters; [9]
  Lambsquarters plant response rating: 20
morningglory; [6]
  Plant response rating (0 to 100 scale), Morningglory: 20
morningglory; [7]
  Morningglory plant response rating: 10
morningglory; [8]
  Plant response rating, Morningglory: 50
morningglory; [9]
  Morningglory plant response rating: 10
pigweed; [6]
  Plant response rating (0 to 100 scale), Pigweed: 60
pigweed; [7]
  Pigweed plant response rating: 20
pigweed; [8]
  Plant response rating, Pigweed: 100
pigweed; [9]
  Pigweed plant response rating: 20
velvetleaf; [6]
  Plant response rating (0 to 100 scale), Velvetleaf: 30
velvetleaf; [7]
  Velvetleaf plant response rating: 10
velvetleaf; [9]
  Velvetleaf plant response rating: 10
blackgrass; [7]
  Blackgrass plant response rating: 0
blackgrass; [9]
  Blackgrass plant response rating: 0
wheat; [7]
  Wheat plant response rating: 0
wheat; [9]
  Wheat plant response rating: 0
Wild oat; [7]
  Oat, Wild plant response rating: 0
Wild oat; [9]
  Oat, Wild plant response rating: 10
rice
  Rice plant response rating: 40
[2]
  Sedge, Umbrella plant response rating: 80
ducksalad
  Ducksalad plant response rating: 70
Barnyardgrass [3]
  Barnyardgrass plant response rating: 30
